Values after ≈ are worked out from the molar mass of the structure shown. Where two headings read alike, the source gives them in different places.
Columns and labels:
[1] = Content of glyburide and arginine dissolved in the filtered supernatant, Example 2; assay type: physicochemical; settings: 8mg glyburide + 8mg arginine in 10mL water, supersaturated solution at 60℃, 0.45um filter
[2] = 100mg glyburide (form A) + 36mg arginine in 10mL water, room temperature, stirred overnight, 0.45um filter
[3] = 25℃; cited from earlier work

N=C(N)NCCCC(N)C(=O)O (stereo not shown) [精氨酸]
arginine content in supernatant [1]: 0.8 mg/mL
arginine content in supernatant [2]: 3.50 mg/mL

COc1ccc(Cl)cc1C(=O)NCCc1ccc(S(=O)(=O)NC(=O)NC2CCCCC2)cc1 [格列本脲, N-[2-[4-[[[(环己氨基)羰基]氨基]磺酰基]苯基]乙基]-2-甲氧基-5-氯苯甲酰胺]
solubility [1]: 800 µg/mL
solubility in water [3]: 100 µg/mL (≈ 202 µM)

From CN113214121A, “一种格列本脲-精氨酸共无定型” (Jiangsu Hengrui Medicine Co Ltd, priority 2020, dated 2021)
